# Patent publication US20240239775A1, “FXR REGULATOR, PREPARATION METHOD THEREFOR, PHARMACEUTICAL COMPOSITION THEREOF AND USE THEREOF” (QINGDAO RUIJI MEDICAL TECHNOLOGY CO., LTD., priority 2021, published 2024)
# Target: T1, FXR (Homo sapiens, UniProt Q96RI1)
# T1 construct: 5 μL of 20 nM FXR-LBD Complete Coregulator buffer G; purchased ThermoFisher PV4833
# T1 sequence (Q96RI1 262-486 limits assumed): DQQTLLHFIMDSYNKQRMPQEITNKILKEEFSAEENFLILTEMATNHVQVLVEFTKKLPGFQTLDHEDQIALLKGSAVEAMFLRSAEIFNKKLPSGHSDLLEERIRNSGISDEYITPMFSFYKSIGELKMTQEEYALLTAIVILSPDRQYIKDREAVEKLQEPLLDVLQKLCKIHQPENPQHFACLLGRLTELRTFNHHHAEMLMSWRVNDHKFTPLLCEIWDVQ
# Assay: FXR antagonist screening by TR-FRET (LanthaScreen TR-FRET FXR co-activation assay kit)
# Assay type: biochemical
# Settings: Table 1.1, FXR antagonistic activity; TR-FRET with CDCA; geometric means of at least two independent runs
# Outline: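 FXR-LBD (20 nM working solution) mixed with compound, CDCA (200 μM working solution) as agonist, Fluorescein-SRC2-2 and Tb-anti-GST antibody in Coregulator buffer G; 10 h at room temperature. Coactivator recruitment read by TR-FRET, triplicate wells.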
row,SMILES,IC50
1,"CCOC(=O)c1oc2ccc(S(=O)(=O)N(CCc3ccccc3)Cc3cccc4cccnc34)cc2c1C [Example M4-44, ethyl 3-methyl-5-(N-(quinolin-8-ylmethyl)-N-phenethylsulfamoyl)benzofuran-2-carboxylate]",50 to 100 µM
2,CCOC(=O)c1oc2ccc(S(=O)(=O)N(CCc3ccccc3)c3ccccc3N3CCN(C(=O)c4ccccc4)CC3)cc2c1C [Example M10-96],50 to 100 µM
3,"CCOC(=O)c1oc2ccc(S(=O)(=O)N(CCc3ccccc3)c3ccc(N4CCOCC4)cc3)cc2c1C [Example M8-63, ethyl 3-methyl-5-(N-(4-morpholinophenyl)-N-phenethylsulfamoyl)benzofuran-2-carboxylate]",50 to 100 µM
4,"CCCOC(=O)N1CCN(c2ccc(N(CCc3ccccc3)S(=O)(=O)c3ccc4oc(C(=O)OCC)c(C)c4c3)cc2)CC1 [Example M8-67, ethyl 3-methyl-5-(N-(4-(4-(propoxycarbonyl)piperazin-1-yl)phenyl)-N-phenethylsulfamoyl)benzo furan-2-carboxylate]",50 to 100 µM
5,"CCOC(=O)c1oc2ccc(S(=O)(=O)N(CCc3ccccc3)c3ccccc3N3CCNCC3)cc2c1C [Example M9-1, ethyl 3-methyl-5-(N-phenethyl-N-(2-(piperazin-1-yl)phenyl)sulfamoyl)benzofuran-2-carboxylate]",50 to 100 µM
6,"CCOC(=O)c1oc2ccc(S(=O)(=O)N(CCc3ccccc3)Cc3ccc(Cl)cc3F)cc2c1C [Example M4-52, ethyl 3-methyl-5-(N-(2-fluoro-4-chlorobenzyl)-N-phenethylsulfamoyl)benzofuran-2-carboxylate]",50 to 100 µM
7,"Cc1c(C(=O)O)oc2ccc(S(=O)(=O)N(CCc3ccccc3)Cc3ccc(N4CCN(C(=O)OC(C)(C)C)CC4)cc3)cc12 [Example F27-S81, 3-methyl-5-(N-(4-(4-(tert-butoxycarbonyl)piperazin-1-yl)benzyl)-N-phenethylsulfamoyl)benzofuran-2-carboxylic acid]",10 to 50 µM
8,"Cc1c(C(=O)O)oc2ccc(S(=O)(=O)N(CCc3ccccc3)Cc3cccc4cccnc34)cc12 [Example F27-S44, 3-methyl-5-(N-(quinolin-8-ylmethyl)-N-phenethylsulfamoyl)benzofuran-2-carboxylic acid]",10 to 50 µM
9,"CCOC(=O)c1oc2ccc(S(=O)(=O)N(CCc3ccccc3)Cc3ccccc3C(F)(F)F)cc2c1C [Example M4-18, ethyl 3-methyl-5-(N-(2-trifluoromethylbenzyl)-N-phenethylsulfamoyl)benzofuran-2-carboxylate]",50 to 100 µM
10,"CCOC(=O)c1oc2ccc(S(=O)(=O)N(CCc3ccccc3)Cc3cccc(F)c3)cc2c1C [Example M4-20, ethyl 3-methyl-5-(N-(3-fluorobenzyl)-N-phenethylsulfamoyl)benzofuran-2-carboxylate]",50 to 100 µM
11,"CCOC(=O)c1oc2ccc(S(=O)(=O)N(CCc3ccccc3)Cc3ccc(C(C)(C)C)cc3)cc2c1C [Example M4-37, ethyl 3-methyl-5-(N-(4-(tert-butyl)benzyl)-N-phenethylsulfamoyl)benzofuran-2-carboxylate]",50 to 100 µM
12,"CCOC(=O)c1oc2ccc(S(=O)(=O)N(CCc3ccccc3)Cc3ccc(F)cc3F)cc2c1C [Example M4-51, ethyl 3-methyl-5-(N-(2,4-difluorobenzyl)-N-phenethylsulfamoyl)benzofuran-2-carboxylate]",50 to 100 µM
13,"CCOC(=O)c1oc2ccc(S(=O)(=O)N(CCc3ccccc3)Cc3cc(F)ccc3C)cc2c1C [Example M4-61, ethyl 3-methyl-5-(N-(2-methyl-5-fluorobenzyl)-N-phenethylsulfamoyl)benzofuran-2-carboxylate]",50 to 100 µM
14,"Cc1c(C(=O)O)oc2ccc(S(=O)(=O)N(CCc3ccccc3)CCc3ccccc3)cc12 [Example F27-S13, 3-methyl-5-(N,N-diphenylethylsulfamoyl)benzofuran-2-carboxylic acid]",10 to 50 µM
15,CCOC(=O)c1oc2ccc(S(=O)(=O)N(CCc3ccccc3)c3ccccc3N3CCN(C(=O)CC(C)(C)C)CC3)cc2c1C [Example M10-94],50 to 100 µM

# Same assay, conditions: Table 1.2, FXR antagonistic activity; TR-FRET with CDCA; geometric means of at least two independent runs
row,SMILES,IC50
1,"Cc1c(C(=O)O)oc2ccc(S(=O)(=O)N(CCc3ccccc3)c3ccccc3N3CCN(C(=O)c4ccc([N+](=O)[O-])cc4)CC3)cc12 [Example F27-S114, 3-methyl-5-(N-(2-(4-(4-nitrobenzoyl)piperazin-1-yl)phenyl)-N-phenethylsulfamoyl)benzofuran-2-carboxylic acid]",0.1 to 10 µM
2,"CCOC(=O)c1cc2cc(S(=O)(=O)N(CCc3ccccc3)c3ccccc3N3CCN(C(=O)c4sccc4Br)CC3)ccc2o1 [Example M10-162, Ethyl 5-(N-(2-(4-(3-bromothiophene-2-formyl)piperazin-1-yl)phenyl)-N-phenethylsulfamoyl)benzofuran-2-carboxylate]",50 to 100 µM
3,"CCOC(=O)c1oc2ccc(S(=O)(=O)N(CCc3ccccc3)c3ccccc3N3CCN(C(=O)c4sccc4Cl)CC3)cc2c1C [Example M10-126, Ethyl 5-(N-(2-(4-(3-chlorothiophene-2-carbonyl)piperazin-1-yl)phenyl)-N-phenethylsulfamoyl)-3-methylbenzofuran-2-carboxylate]",50 to 100 µM
4,"O=C(O)c1cc2ccc(S(=O)(=O)N(CCc3ccccc3)c3ccccc3N3CCN(C(=O)c4sccc4Br)CC3)cc2o1 [Example F27-S164, 6-(N-(2-(4-(3-bromothiophene-2-formyl)piperazin-1-yl)phenyl)-N-phenethylsulfamoyl)benzofuran-2-carboxylic acid]",0.1 to 10 µM
5,"CC(=O)c1ccc(C(=O)N2CCN(c3ccccc3N(CCc3ccccc3)S(=O)(=O)c3ccc4oc(C(=O)O)c(C)c4c3)CC2)cc1 [Example F27-S115, 5-(N-(2-(4-(4-acetylbenzoyl)piperazin-1-yl)phenyl)-N-phenethylsulfamoyl)-3-methylbenzofuran-2-carboxylic acid]",0.1 to 10 µM
6,"Cc1c(C(=O)O)n(C)c2ccc(S(=O)(=O)N(CCc3ccccc3)c3ccccc3N3CCN(C(=O)c4sccc4Br)CC3)cc12 [Example F27-S179, 5-(N-(2-(4-(3-bromothiophene-2-carbonyl)piperazin-1-yl)phenyl)-N-phenethylsulfamoyl)-1,3-dimethyl-1H-indole-2-carboxylic acid]",0.1 to 10 µM
7,"COc1ccccc1CCN(c1ccccc1N1CCN(C(=O)c2sccc2Br)CC1)S(=O)(=O)c1ccc2sc(C(=O)O)c(C)c2c1 [Example F27-S174, 5-(N-(2-(4-(3-bromothiophene-2-carbonyl)piperazin-1-yl)phenyl)-N-(2-methoxyphenethyl)sulfamoyl)-3-methylbenzothiophene-2-carboxylic acid]",0.1 to 10 µM
8,"Cc1c(C(=O)O)oc2ccc(S(=O)(=O)N(CCc3ccccc3)c3ccccc3N3CCN(C(=O)c4ccc(Cl)s4)CC3)cc12 [Example F27-S128, 5-(N-(2-(4-(5-chlorothiophene-2-carbonyl)piperazin-1-yl)phenyl)-N-phenethylsulfamoyl)-3-methyl benzofuran-2-carboxylic acid]",0.1 to 10 µM
9,"Cc1c(C(=O)O)oc2ccc(S(=O)(=O)N(CCc3ccccc3)c3ccccc3N3CCN(C(=O)c4cc(Br)cs4)CC3)cc12 [Example F27-S127, 5-(N-(2-(4-(4-bromothiophene-2-carbonyl)piperazin-1-yl)phenyl)-N-phenethylsulfamoyl)-3-methyl benzofuran-2-carboxylic acid]",0.1 to 10 µM
10,CCOC(=O)c1sc2ccc(S(=O)(=O)N(CCc3ccc(C#N)cc3)c3ccccc3N3CCN(C(=O)c4sccc4Br)CC3)cc2c1C [Example M10-168],50 to 100 µM
11,"Cc1c(C(=O)O)sc2ccc(S(=O)(=O)N(CCc3ccc(Cl)cc3)c3ccccc3N3CCN(C(=O)c4sccc4Br)CC3)cc12 [Example F27-S166, 5-(N-(2-(4-(3-bromothiophene-2-carbonyl)piperazin-1-yl)phenyl)-N-(4-chlorophenylethyl)sulfamoyl)-3-methylbenzothiophene-2-carboxylic]",0.1 to 10 µM
12,"CCOC(=O)c1oc2ccc(S(=O)(=O)N(CCc3ccccc3)c3ccccc3N3CCN(C(=O)c4ccc(NC(C)=O)cc4)CC3)cc2c1C [Example M10-109, Ethyl 5-(N-(2-(4-(4-Acetylaminobenzoyl)piperazin-1-yl)phenyl)-N-phenethylsulfamoyl)-3-methyl benzofuran-2-carboxylate]",50 to 100 µM
13,"Cc1c(C(=O)O)oc2ccc(S(=O)(=O)N(CCc3ccccc3)c3ccccc3N3CC4(CCN(C(=O)c5sccc5Br)CC4)C3)cc12 [Example F27-S149, 5-(N-(2-(7-(3-bromothiophene-2-carbonyl)-2,7-diazaspiro[3.5]nonan-2-yl)phenyl)-N-phenethylsulfamoyl)-3-methylbenzofuran-2-carboxylic acid]",0.1 to 10 µM
14,"Cc1c(C(=O)O)oc2ccc(S(=O)(=O)N(CCc3ccccc3)c3ccccc3N3CCN(C(=O)c4ccc[nH]4)CC3)cc12 [Example F27-S124, 5-(N-(2-(4-(1H-pyrrole-2-carbonyl)piperazin-1-yl)phenyl)-N-phenethylsulfamoyl)-3-methylbenzofuran-2-carboxylic acid]",0.1 to 10 µM
15,"CCOC(=O)c1oc2ccc(S(=O)(=O)N(CCc3ccccc3)c3ccccc3N3CCN(C(=O)c4cncs4)CC3)cc2c1C [Example M10-129, Ethyl 3-methyl-5-(N-phenethyl-N-(2-(4-(thiazole-5-carbonyl)piperazin-1-yl)phenyl)sulfamoyl)benzofuran-2-carboxylate]",50 to 100 µM
16,"Cc1c(C(=O)O)oc2ccc(S(=O)(=O)N(CCc3ccccc3)c3ccccc3N3CCN(C(=O)c4ccc(F)cc4)CC3)cc12 [Example F27-S112, 5-(N-(2-(4-(4-fluorobenzoyl)piperazin-1-yl)phenyl)-N-phenethylsulfamoyl)-3-methylbenzofuran-2-carboxylic acid]",0.1 to 10 µM
